# Reference: patent publication US11214803B2, “Modulators of YAP1 expression” (Ionis Pharmaceuticals, Inc., priority 2019, dated 2022)
# Strand notation (5' to 3'): a small letter for the sugar, then the base; units joined by * are phosphorothioate-linked, units joined directly phosphodiester-linked; [ ] holds rarer units or linkages, { } end groups; capitals alone tell only the bases. k = constrained ethyl (cEt); [5mC] = 5-methylcytosine; d = 2'-deoxy (DNA)
# Key:
# [1] = system: Yap1 mRNA; experiment: Antisense inhibition of human Yap1 in A-431 cells by cEt gapmers, single dose (Example 3, RTS36584); assay type: cell-based
# Outline: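 Values are % untreated control: Yap1 mRNA by quantitative RT-PCR (RTS36584), normalized to total RNA by RiboGreen. Before RNA isolation, 5,000 A-431 cells per well were exposed ~48 h to 2,000 nM 16-mer cEt gapmer, delivered without transfection reagent.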
# [2] = system: Yap1 mRNA; experiment: Dose-dependent inhibition of human Yap1 in A-431 cells (Example 8, 10,000 cells per well, RTS4814); assay type: cell-based; details: for % UTC (Yap1 mRNA) / IC50: A-431 cells; for Yap1 mRNA, % UTC: A-431 cells, 10,000 cells per well
# Outline: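 A-431 cells (10,000/well) dosed with modified oligonucleotides by free uptake; Yap1 mRNA measured ~48 h later with primer-probe set RTS4814, normalized to total RNA (RIBOGREEN). Values are % of untreated control; IC50 from linear regression on log/linear plot.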
# [3] = Table 34, Yap1 mRNA as percent of untreated control, 3-10-3 cEt gapmers targeting SEQ ID NO: 1 and 2, single dose
# [4] = Table 26, Yap1 mRNA by 3-10-3 cEt gapmers targeting SEQ ID NO.: 1, and 2, percent of untreated control
# [5] = 31.3 nM, free uptake, approximately 48 hours, RTS4814
# [6] = 125.0 nM, free uptake, approximately 48 hours, RTS4814
# [7] = 500.0 nM, free uptake, approximately 48 hours, RTS4814
# [8] = 2000.00 nM, free uptake, approximately 48 hours, RTS4814
# [9] = free uptake, approximately 48 hours, RTS4814, linear regression on log/linear plot
# [10] = Table 29, Yap1 mRNA as percent of untreated control, 3-10-3 cEt gapmers targeting SEQ ID NO.: 1, and 2
# [11] = Table 27, Yap1 mRNA by 3-10-3 cEt gapmers targeting SEQ ID NO.: 1, and 2, percent of untreated control
# [12] = Table 35, Yap1 mRNA as percent of untreated control, 3-10-3 cEt gapmers targeting SEQ ID NO: 1 and 2, single dose
# [13] = Table 28, Yap1 mRNA as percent of untreated control, 3-10-3 cEt gapmers targeting SEQ ID NO.: 1, and 2
Substance,"YAP1 (% UTC) [1, 3]",% UTC (Yap1 mRNA) ([2]; 31.3 nM),% UTC (Yap1 mRNA) ([2]; 125.0 nM),% UTC (Yap1 mRNA) ([2]; 500.0 nM),% UTC (Yap1 mRNA) ([2]; 2000.00 nM),IC50 ([2]; Yap1 mRNA),"YAP1 (% UTC) [1, 4]","Yap1 mRNA, % UTC [2, 5]","Yap1 mRNA, % UTC [2, 6]","Yap1 mRNA, % UTC [2, 7]","Yap1 mRNA, % UTC [2, 8]","IC50 [2, 9]","YAP1 (% UTC) [1, 10]","YAP1 (% UTC) [1, 11]","YAP1 (% UTC) [1, 12]","YAP1 (% UTC) [1, 13]"
1074548 (kA*kT*k[5mC]*dT*dA*d[5mC]*d[5mC]*dG*dT*dA*dT*dG*d[5mC]*k[5mC]*k[5mC]*kA; antisense) [compound 1074548],4 % UTC,50 % UTC,15 % UTC,7 % UTC,8 % UTC,< 20 nM,,,,,,,,,,
1075052 (antisense kA*kT*kA*dT*dA*dT*dA*d[5mC]*dT*dT*dG*dA*dT*k[5mC]*k[5mC]*kA) [compound 1075052],,,,,,,3 % UTC,40 % UTC,10 % UTC,4 % UTC,4 % UTC,< 20 nM,,,,
1074452 (kT*kG*kA*d[5mC]*dT*dA*dA*dT*dG*dA*dT*dA*dG*k[5mC]*kA*k[5mC]; antisense) [compound 1074452],3 % UTC,88 % UTC,28 % UTC,9 % UTC,5 % UTC,100 nM,,,,,,,,,,
1075855 (antisense kG*kA*kT*dT*dT*dT*dT*dA*dG*dG*d[5mC]*dA*dG*kA*k[5mC]*kG) [compound 1075855],,,,,,,,65 % UTC,30 % UTC,12 % UTC,8 % UTC,100 nM,7 % UTC,,,
1075055 (antisense k[5mC]*kT*kA*dT*dT*dA*dA*dG*dT*dG*dA*dG*d[5mC]*kT*kT*kT) [compound 1075055],,,,,,,,60 % UTC,20 % UTC,6 % UTC,4 % UTC,30 nM,4 % UTC,,,
1074477 (kG*kT*kT*d[5mC]*d[5mC]*dG*dA*d[5mC]*dA*dA*dA*dA*d[5mC]*k[5mC]*kA*kA; antisense) [compound 1074477],,,,,,,,77 % UTC,48 % UTC,20 % UTC,12 % UTC,100 nM,,10 % UTC,,
1074549 (DNA kT*kA*kT*d[5mC]*dT*dA*d[5mC]*d[5mC]*dG*dT*dA*dT*dG*k[5mC]*k[5mC]*k[5mC]; antisense) [compound 1074549],,67 % UTC,31 % UTC,12 % UTC,7 % UTC,100 nM,,,,,,,,,6 % UTC,
1076366 (antisense kA*kT*kT*dT*dA*d[5mC]*dA*dT*dG*dA*dG*dA*dG*kG*kA*kG) [compound 1076366],,,,,,,,63 % UTC,25 % UTC,8 % UTC,4 % UTC,40 nM,,,,4 % UTC
1074351 (antisense kA*kT*kG*d[5mC]*dT*dT*dA*dG*dT*d[5mC]*d[5mC]*dA*d[5mC]*kT*kG*kT) [compound 1074351],,,,,,,,69 % UTC,33 % UTC,13 % UTC,7 % UTC,100 nM,7 % UTC,,,
1076526 (kG*kT*kA*dG*dA*dA*dA*dG*dA*dT*dG*dG*d[5mC]*kT*k[5mC]*kA; antisense) [compound 1076526],,,,,,,,44 % UTC,9 % UTC,3 % UTC,2 % UTC,< 20 nM,,,,3 % UTC
1074638 (antisense kA*kG*kA*dT*dT*dT*dT*dG*dT*dA*dA*dT*dT*kG*kG*kG) [compound 1074638],,,,,,,,14 % UTC,4 % UTC,3 % UTC,3 % UTC,< 20 nM,,,,2 % UTC
1076525 (kG*kA*kA*dT*dT*dT*dA*dT*dA*dT*d[5mC]*dA*dG*kG*kT*k[5mC]; antisense) [compound 1076525],,,,,,,,43 % UTC,14 % UTC,5 % UTC,2 % UTC,< 20 nM,,3 % UTC,,
1074444 (kA*k[5mC]*kA*dT*dT*dT*dT*dT*dG*dG*d[5mC]*dT*dT*kG*kT*k[5mC]; antisense) [compound 1074444],,,,,,,3 % UTC,49 % UTC,21 % UTC,7 % UTC,4 % UTC,< 20 nM,,,,
1074420 (kG*kA*kT*dT*d[5mC]*dT*dT*dT*dA*dG*dA*dG*d[5mC]*k[5mC]*kA*kA; antisense) [compound 1074420],2 % UTC,,,,,,,38 % UTC,8 % UTC,3 % UTC,2 % UTC,< 20 nM,,,,
1076430 (k[5mC]*kG*kT*dT*dA*dT*dA*dA*dG*dA*dT*dG*dT*kG*k[5mC]*kT; antisense) [compound 1076430],,,,,,,,42 % UTC,14 % UTC,6 % UTC,4 % UTC,< 20 nM,,,,4 % UTC
1074485 (kT*kT*k[5mC]*dA*d[5mC]*dT*dA*dA*dT*dA*dT*dG*dG*kT*k[5mC]*kA; antisense) [compound 1074485],,47 % UTC,14 % UTC,5 % UTC,3 % UTC,< 20 nM,,,,,,,,,4 % UTC,
1074613 (DNA k[5mC]*kA*kT*dA*dG*d[5mC]*dT*dT*dA*dT*dA*dT*dT*kG*kA*kA; antisense) [compound 1074613],,63 % UTC,23 % UTC,9 % UTC,6 % UTC,40 nM,,,,,,,,,7 % UTC,
1076077 (kG*kG*kA*dT*dT*dA*dA*dA*dG*dT*dT*dT*dT*k[5mC]*kA*k[5mC]; antisense) [compound 1076077],,,,,,,,53 % UTC,19 % UTC,9 % UTC,5 % UTC,< 20 nM,,5 % UTC,,
1074414 (kA*kA*k[5mC]*dT*dG*dT*dG*dA*dA*dA*dG*dA*dG*kG*kT*k[5mC]; antisense) [compound 1074414],,,,,,,,64 % UTC,34 % UTC,14 % UTC,7 % UTC,100 nM,,,,6 % UTC
1076143 (kG*kA*kT*dA*d[5mC]*dG*dA*dA*dA*dA*dA*dA*dG*k[5mC]*k[5mC]*kA; antisense) [compound 1076143],,,,,,,,81 % UTC,48 % UTC,20 % UTC,9 % UTC,100 nM,8 % UTC,,,
